Results from US20250018047A1, “METHODS AND COMPOSITIONS FOR TARGETED PROTEIN DEGRADATION” (Ranok Therapeutics (Hangzhou) Co. Ltd., priority 2021, published 2025).
pIC50: −log10 of the molar value. Where a name gives a salt, the structure may show the parent alone.

Tests used:
KRAS(G12D)/SOS1 = target: T1, KRAS(G12D)/SOS1 (Homo sapiens, UniProt P01116, G12D); test: KRAS(G12D)/SOS1 homogeneous time-resolved fluorescence (HTRF) assay; assay type: binding; conditions: absence of GTP, 4° C. for 3 hr
T1 construct: purchased Cisbio 63ADK000CB16PEG
Protocol: The test compound was mixed and incubated with reaction components, incubated in a sealed plate at 4° C. for 3 hr and fluorescence was measured using a PerkinElmer Envision plate reader.

[1] = test system: AsPC-1 human pancreatic adenocarcinoma; test: CellTiter-Glo cancer cell line proliferation assay, AsPC-1; assay type: cell-based; conditions: Homo sapiens, ASPC1, 24 hr
Summary of the method: (§1)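 Cells plated at 4,000/well, grown 24 h at 37 °C/5% CO2, then exposed to compound concentration series (0.5% DMSO final) for 24 h. Viability read by CellTiter-Glo luminescence; IC50 values calculated.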

[2] = test system: A-427 human lung carcinoma; test: CellTiter-Glo cancer cell line proliferation assay, A-427; assay type: cell-based; conditions: Homo sapiens, A-427, 24 hr, read-out: A427 at 24 hrs, IC50
Summary of the method: as §1

[3] = target: BA/F3-KRAS(G12D) murine pro-B cell line stably expressing KRAS(G12D) (Homo sapiens, UniProt P01116, G12D, cells depend on it); test: CellTiter-Glo cancer cell line proliferation assay, BA/F3-KRAS(G12D); assay type: cell-based; conditions: 24 hr, read-out: BAF3 at 24 hrs, IC50
Protocol: The following cancer cell lines were employed: AsPC-1 human pancreatic adenocarcinoma (ATCC, #CRL-1682); A-427 human lung carcinoma (ATCC, #HTB-53); BA/F3-KRAS(G12D) murine pro-B cell line stably expressing KRAS(G12D) (Precedo, Hefei, China). Cell lines were cultured according to ATCC and recommendations. BA/F3-KRAS(G12D) cells were cultured in RPMI 1640 media with 10% fetal calf serum, 100 units/mL penicillin and […] streptomycin, and 1% glutamine.
CellTiter-Glo® Reagent Cancer Cell Line Proliferation Assays
Cells were plated in 96-well tissue culture plates at 4,000 cells/well and incubated at 37° C./5% CO2 for 24 hr in 100 μl of media. 3-fold serial dilutions of each test compound were prepared ranging from 20 μM to 1.02 nM. Cells were then treated with test compounds at various concentrations with a final concentration of 0.5% DMSO/well, and then incubated at 37° C./5% CO2 for 24 hr. 100 μl of CellTiter-Glo® Reagent (Promega Corporation, Madison, WI) was added to each well and processed according manufacturer's protocol. Results were analyzed and IC50-values were calculated in GraphPad 7 software.

T1 sequence (P01116 1-188 isoform P01116-2 G12D): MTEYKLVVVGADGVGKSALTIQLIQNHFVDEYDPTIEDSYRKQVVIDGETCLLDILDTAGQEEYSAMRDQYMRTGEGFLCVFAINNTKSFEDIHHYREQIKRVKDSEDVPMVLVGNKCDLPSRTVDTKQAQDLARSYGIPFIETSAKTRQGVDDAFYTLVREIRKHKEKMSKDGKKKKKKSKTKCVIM
Chain of BA/F3-KRAS(G12D) murine pro-B cell line stably expressing KRAS(G12D) (P01116 whole entry G12D): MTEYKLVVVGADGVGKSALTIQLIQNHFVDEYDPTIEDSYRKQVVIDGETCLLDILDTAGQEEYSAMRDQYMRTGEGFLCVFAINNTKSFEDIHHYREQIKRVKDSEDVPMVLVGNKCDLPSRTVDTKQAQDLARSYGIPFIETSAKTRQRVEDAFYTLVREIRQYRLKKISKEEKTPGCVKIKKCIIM

Compound	pIC50 (KRAS(G12D)/SOS1)	pIC50 [1]	pIC50 [2]	GI50 [3]
C#Cc1cccc2cccc(-c3ncc4c(N5CC6CCC(C5)N6)nc(OC[C@@H]5CC[C@H](CN6CCN(CC7CCN(c8ccc9c(c8)C(=O)N(C8CCC(=O)NC8=O)C9=O)CC7)CC6)N5C)nc4c3F)c12 (stereo partly drawn) [Compound 13, 5-(4-((4-(((2R,5S)-5-(((4-(3,8-diazabicyclo[3.2.1]octan-3-yl)-7-(8-ethynylnaphthalen-1-yl)-8-fluoropyrido[4,3-d]pyrimidin-2-yl)oxy)methyl)-1-methylpyrrolidin-2-yl)methyl)piperazin-1-yl)methyl)piperidin-1-yl)-2-(2,6-dioxopiperidin-3-yl)isoindoline-1,3-dione hydrochloride]	> 7.00	< 6.00	< 6.00	100 to 1000 nM
Cc1ncsc1-c1ccc(CNC(=O)[C@@H]2C[C@@H](O)CN2C(=O)[C@@H](NC(=O)CCCNC(=O)C2CCN([C@H]3C[C@@H](COc4nc(N5CC6CCC(C5)N6)c5cnc(-c6cccc7cccc(Cl)c67)c(F)c5n4)N(C)C3)CC2)C(C)(C)C)cc1 [Compound 26, 1-((3S,5S)-5-(((4-(3,8-diazabicyclo[3.2.1]octan-3-yl)-7-(8-chloronaphthalen-1-yl)-8-fluoropyrido[4,3-d]pyrimidin-2-yl)oxy)methyl)-1-methylpyrrolidin-3-yl)-N-(4-(((S)-1-((2S,4R)-4-hydroxy-2-((4-(4-methylthiazol-5-yl)benzyl)carbamoyl)pyrrolidin-1-yl)-3,3-dimethyl-1-oxobutan-2-yl)amino)-4-oxobutyl)piperidine-4-carboxamide]	> 7.00	< 6.00	< 6.00	> 1000 nM
CN1C[C@@H](N2CCC(C(=O)NCCOCCOc3ccc4c(c3)C(=O)N(C3CCC(=O)NC3=O)C4=O)CC2)C[C@H]1COc1nc(N2CC3CCC(C2)N3)c2cnc(-c3cccc4ccccc34)c(F)c2n1 (stereo partly drawn) [Compound 21, 1-((3S,5S)-5-(((4-(3,8-diazabicyclo[3.2.1]octan-3-yl)-8-fluoro-7-(naphthalen-1-yl)pyrido[4,3-d]pyrimidin-2-yl)oxy)methyl)-1-methylpyrrolidin-3-yl)-N-(2-(2-((2-(2,6-dioxopiperidin-3-yl)-1,3-dioxoisoindolin-5-yl)oxy)ethoxy)ethyl)piperidine-4-carboxamide formate]	6.00 to 7.00	< 6.00	< 6.00	> 1000 nM
C#Cc1cccc2cccc(-c3ncc4c(N5CC6CCC(C5)N6)nc(OCCN5CCN(Cc6ccc7c(c6)C(=O)N(C6CCC(=O)NC6=O)C7=O)CC5)nc4c3F)c12 (stereo not drawn) [Compound 2, 5-((4-(2-((4-(3,8-diazabicyclo[3.2.1]octan-3-yl)-7-(8-ethynylnaphthalen-1-yl)-8-fluoropyrido[4,3-d]pyrimidin-2-yl)oxy)ethyl)piperazin-1-yl)methyl)-2-(2,6-dioxopiperidin-3-yl)isoindoline-1,3-dione hydrochloride]	> 7.00	< 6.00	< 6.00	> 1000 nM
CN1C[C@@H](N2CCC(C(=O)Nc3ccc4c(c3)C(=O)N(C3CCC(=O)NC3=O)C4=O)CC2)C[C@H]1COc1nc(N2CC3CCC(C2)N3)c2cnc(-c3cccc4ccccc34)c(F)c2n1 (stereo partly drawn) [Compound 25, 1-((3S,5S)-5-(((4-(3,8-diazabicyclo[3.2.1]octan-3-yl)-8-fluoro-7-(naphthalen-1-yl)pyrido[4,3-d]pyrimidin-2-yl)oxy)methyl)-1-methylpyrrolidin-3-yl)-N-(2-(2,6-dioxopiperidin-3-yl)-1,3-dioxoisoindolin-5-yl)piperidine-4-carboxamide formate]	> 7.00	< 6.00	< 6.00	> 1000 nM
C#Cc1cccc2cccc(-c3ncc4c(N5CC6CCC(C5)N6)nc(OC[C@@H]5CC[C@H](CN6CCN(CC7CCN(c8cccc9c8C(=O)N(C8CCC(=O)NC8=O)C9=O)CC7)CC6)N5C)nc4c3F)c12 (stereo partly drawn) [Compound 14, 4-(4-((4-(((2R,5S)-5-(((4-(3,8-diazabicyclo[3.2.1]octan-3-yl)-7-(8-ethynylnaphthalen-1-yl)-8-fluoropyrido[4,3-d]pyrimidin-2-yl)oxy)methyl)-1-methylpyrrolidin-2-yl)methyl)piperazin-1-yl)methyl)piperidin-1-yl)-2-(2,6-dioxopiperidin-3-yl)isoindoline-1,3-dione]	> 7.00	6.00 to 7.00	< 6.00	100 to 1000 nM
CN1C[C@@H](N2CCC(C(=O)NCCOCCOc3ccc4c(c3)C(=O)N(C3CCC(=O)NC3=O)C4=O)CC2)C[C@H]1COc1nc(N2CC3CCC(C2)N3)c2cnc(-c3cccc4cccc(Cl)c34)c(F)c2n1 (stereo partly drawn) [Compound 11, 1-((3S,5S)-5-(((4-(3,8-diazabicyclo[3.2.1]octan-3-yl)-7-(8-chloronaphthalen-1-yl)-8-fluoropyrido[4,3-d]pyrimidin-2-yl)oxy)methyl)-1-methylpyrrolidin-3-yl)-N-(2-(2-((2-(2,6-dioxopiperidin-3-yl)-1,3-dioxoisoindolin-5-yl)oxy)ethoxy)ethyl)piperidine-4-carboxamide formate]	6.00 to 7.00	< 6.00	< 6.00	> 1000 nM
C#Cc1cccc2cccc(-c3ncc4c(N5CC6CCC(C5)N6)nc(OCC5(CN6CCN(CC7CCN(c8cccc9c8C(=O)N(C8CCC(=O)NC8=O)C9=O)CC7)CC6)CC5)nc4c3F)c12 (stereo not drawn) [Compound 29, 4-(4-((4-((1-(((4-(3,8-diazabicyclo[3.2.1]octan-3-yl)-7-(8-ethynylnaphthalen-1-yl)-8-fluoropyrido[4,3-d]pyrimidin-2-yl)oxy)methyl)cyclopropyl)methyl)piperazin-1-yl)methyl)piperidin-1-yl)-2-(2,6-dioxopiperidin-3-yl)isoindoline-1,3-dione formate]	> 7.00	< 6.00	< 6.00	100 to 1000 nM
CN1C[C@@H](N2CCC(C(=O)NCCOc3ccc4c(c3)C(=O)N(C3CCC(=O)NC3=O)C4=O)CC2)C[C@H]1COc1nc(N2CC3CCC(C2)N3)c2cnc(-c3cccc4ccccc34)c(F)c2n1 (stereo partly drawn) [Compound 22, 1-((3S,5S)-5-(((4-(3,8-diazabicyclo[3.2.1]octan-3-yl)-8-fluoro-7-(naphthalen-1-yl)pyrido[4,3-d]pyrimidin-2-yl)oxy)methyl)-1-methylpyrrolidin-3-yl)-N-(2-((2-(2,6-dioxopiperidin-3-yl)-1,3-dioxoisoindolin-5-yl)oxy)ethyl)piperidine-4-carboxamide formate]	< 6.00	< 6.00	< 6.00	> 1000 nM
C#Cc1cccc2cccc(-c3ncc4c(N5CC6CCC(C5)N6)nc(OC[C@@H]5CC[C@H](CN6CCN(Cc7ccc8c(c7)C(=O)N(C7CCC(=O)NC7=O)C8=O)CC6)N5C)nc4c3F)c12 (stereo partly drawn) [Compound 15, 5-((4-(((2R,5S)-5-(((4-(3,8-diazabicyclo[3.2.1]octan-3-yl)-7-(8-ethynylnaphthalen-1-yl)-8-fluoropyrido[4,3-d]pyrimidin-2-yl)oxy)methyl)-1-methylpyrrolidin-2-yl)methyl)piperazin-1-yl)methyl)-2-(2,6-dioxopiperidin-3-yl)isoindoline-1,3-dione formate]	> 7.00		< 6.00	> 1000 nM
C#Cc1cccc2cccc(-c3ncc4c(N5CC6CCC(C5)N6)nc(OCCC5CCN(CC6CCN(c7cccc8c7C(=O)N(C7CCC(=O)NC7=O)C8=O)CC6)CC5)nc4c3F)c12 (stereo not drawn) [Compound 3, 4-(4-((4-(2-((4-(3,8-diazabicyclo[3.2.1]octan-3-yl)-7-(8-ethynylnaphthalen-1-yl)-8-fluoropyrido[4,3-d]pyrimidin-2-yl)oxy)ethyl)piperidin-1-yl)methyl)piperidin-1-yl)-2-(2,6-dioxopiperidin-3-yl)isoindoline-1,3-dione hydrochloride]	> 7.00		< 6.00	100 to 1000 nM
C#Cc1cccc2cccc(-c3ncc4c(N5CC6CCC(C5)N6)nc(OCCN5CCN(CC6CCN(c7ccc8c(c7)C(=O)N(C7CCC(=O)NC7=O)C8=O)CC6)CC5)nc4c3F)c12 (stereo not drawn) [Compound 1, 5-(4-((4-(2-((4-(3,8-diazabicyclo[3.2.1]octan-3-yl)-7-(8-ethynylnaphthalen-1-yl)-8-fluoropyrido[4,3-d]pyrimidin-2-yl)oxy)ethyl)piperazin-1-yl)methyl)piperidin-1-yl)-2-(2,6-dioxopiperidin-3-yl)isoindoline-1,3-dione hydrochloride]	6.00 to 7.00		< 6.00	> 1000 nM
